Experimental data: patent US20240101599A1, “PEPTIDE, CELL GROWTH PROMOTER, PROTEIN PRODUCTION PROMOTER, CULTURE MEDIUM, CELL GROWTH METHOD USING PEPTIDE, AND PROTEIN PRODUCTION METHOD USING PEPTIDE” (Maruhachi Muramatsu, Inc., priority 2020, published 2024)
Peptide text beside a SMILES is read from it.

Columns and labels:
CHO DP-12 = assay: Cell growth test and protein production test on each peptide and combination of peptides on coating agent; format: cell-based; details: one type of tripeptide: GPP 1.1 mM, DGP 2.2 mM, GEK 2.1 mM, AGK 2.0 mM, 5 days; for Amount of protein produced, Average / Viability, Average: average n=3; for Amount of protein produced, Average / Amount of protein produced, 1 / Amount of protein produced, 2 / Amount of protein produced, 3: ELISA; for Cells cell count, Average: poly-L-lysine coating, n=3; for Amount of protein produced, 1 / Viability, 1: replicate 1; for Amount of protein produced, 2 / Viability, 2: replicate 2; for Amount of protein produced, 3 / Viability, 3: replicate 3
Procedure: Peptides having the sequences of Gly-Pro-Pro (GPP), Asp-Gly-Pro (DGP), Gly-Glu-Lys (GEK), and Ala-Gly-Lys (AGK) were synthesized to prepare each peptide solution such that the concentration was a concentration at which the cell number increased the most within a range of 0 mM to 5 mM. In other words, Gly-Pro-Pro (GPP) was adjusted to 11 mM, Asp-Gly-Pro (DGP) was adjusted to 22 mM, Gly-Glu-Lys (GEK) was adjusted to 21 mM, and Ala-Gly-Lys (AGK) was adjusted to 20 mM, and an amount of 1/10 of the total culture medium volume was added to each well immediately before the cell culture test such that final concentrations were 1.1 mM, 2.2 mM, 2.1 mM, and 2.0 mM, respectively. Poly-L-lysine (Peptide Institute, Inc., Poly-L-Lysine Hydrochloride, code: 3075) was prepared to 0.1 mg/mL, and 200 μL was dispensed into each well of a 24-well plate, which was left to stand in an incubator at 37° C. for 2 hours. After removing the residual liquid with an aspirator, rinsing was performed with distilled water, irradiation was performed with a UV lamp in a clean bench without a lid, and drying was performed overnight to sterilize. A cell suspension prepared such that CHO DP-12 (ATCC, Cat. No. CRL-12445) was at 2×10^4 cells/well and 500 μL was seeded in a 24-well plate and cultured in an incubator at 37° C. and 5% CO2 for 24 hours. As a culture medium, a DMEM basal medium in which 200 nM of methotrexate and 2 μg/mL of insulin were blended in a DMEM culture medium (Gibco) containing 10% FBS was used.
After removing the culture medium from each well and washing with the DMEM basal medium (500 μL), 450 μL of a new DMEM basal medium was dispensed into each well, and each peptide solution (50 μL) was added (total 500 μL/well) to perform culture for 5 days.
As peptides, in addition to single GPP, DGP, GEK, and AGK, combinations of GPP+GEK, GPP+AGK, DGP+GEK, GEK+AGK, DGP+AGK, GPP+GEK+AGK, GPP+DGP+AGK, and GPP+DGP+GEK were used. A similar culture test was performed using a system containing neither peptide nor FBS as a comparative sample.
In order to measure the amount of protein produced, 100 μL of the culture medium supernatant was recovered in a 1.5 mL tube and diluted to quantitatively determine the amount of protein produced by an ELISA method.
In order to recover the cells, the culture medium in each well was recovered in a 1.5 mL tube to be rinsed with 200 μL of the DMEM basal medium, and the rinsed liquid was also recovered in the same 1.5 mL tube. Thereafter, 100 μL of trypsin was added and incubated for 3 minutes. After rinsing with 300 μL of the DMEM basal medium containing 10% FBS, the rinsed liquid was also recovered in the same 1.5 mL tube. After rinsing again with 200 μL of the DMEM basal medium containing 10% FBS, the rinsed liquid was also recovered in the same 1.5 mL tube.
A centrifugation operation was performed on the cells recovered in the 1.5 mL tube. The centrifugation conditions were 1,000 rpm, 10 minutes, and 4° C.
The supernatant was removed, and 300 μL of Cold PBS (phosphate buffered saline) was added to perform a centrifugation operation under the same conditions. The present operation was repeated twice.
Suspension was carried out with 100 μL of Binding Buffer, and 2 μL of propidium iodide (PI) was added and stirred in the tube to cause a reaction for 15 minutes at room temperature and with light shielding. Thereafter, the viable cell count and the cell viability were measured with a flow cytometer.
The above preparation, culture, and measurement were performed with n=3. Table 17, FIG. 17, Table 20, FIG. 20, Table 23, and FIG. 23 show the viable cell count in each peptide solution. Table 18, FIG. 18, Table 21, FIG. 21, Table 24, and FIG. 24 show the cell viability in each peptide solution. Table 19, FIG. 19, Table 22, FIG. 22, Table 25, and FIG. 25 show the amount of protein produced in each peptide solution.

CHO-K1 = assay: Relationship between concentration of each peptide solution and viable cell count (absorbance); format: cell-based; details: for Absorbance (450 nm): 5 days, MEMα without FBS, n = 3 average, 0 mM = 0.0000; for cell growth promotion, order of the peptides: in words, promoted in the order GEK, DGP, AGK, GPP, GGP, AEK, AGG, ASN, EGK (strongest first)
Procedure: Peptides having the sequences of Gly-Glu-Lys (GEK), Asp-Gly-Pro (DGP), Ala-Gly-Lys (AGK), Gly-Pro-Pro (GPP), Gly-Gly-Pro (GGP), Ala-Glu-Lys (AEK), Ala-Gly-Gly (AGG), Ala-Ser-Asn (ASN), and Glu-Gly-Lys (EGK), and Gly-Gly-Gly (GGG) are synthesized to prepare each of peptide solutions at 10-fold concentrations shown in Tables 1 to 10.
A cell suspension prepared such that CHO-K1 (RI KEN BioResource Research Center, cell number: RCB2330) was at 3×10^4 cells/mL was seeded in a 96-well plate at 100 μL/well and cultured in an incubator at 37° C. and 5% CO2 for 24 hours. As a culture medium, an MEMα culture medium (Gibco) containing 10% FBS was used.
After removing the culture medium from each well and washing with the MEMα culture medium (100 μL), 90 μL of a new MEMa culture medium was dispensed into each well, and each peptide solution (10 μL) was added (total 100 μL/well) such that final concentrations were within a range of 0 mM to 5 mM as shown in Tables 1 to 10 to perform culture for 5 days. A similar culture test was performed using a system containing neither peptide nor FBS as a comparative sample. After culturing for 5 days, 10 μL/well of a viable cell count measurement reagent SF (Nacalai Tesque Inc.) was added, and a color reaction was carried out in an incubator at 37° C. and 5% CO2 for 2 hours to measure an absorbance at 450 nm with a plate reader. A reference wavelength was 630 nm. It was confirmed that the absorbance at 450 nm correlated with the cell number.
The above preparation, culture, and measurement were performed with n=3, and Tables 1 to 10 and FIGS. 1 to 10 show the absorbance at the concentration of each peptide solution.

Row | Compound | Amount of protein produced, Average (CHO DP-12) [mg/L] | Viability, Average (CHO DP-12) | Cells cell count, Average (CHO DP-12) | Amount of protein produced, 1 (CHO DP-12) [mg/L] | Viability, 1 (CHO DP-12) | Amount of protein produced, 2 (CHO DP-12) [mg/L] | Viability, 2 (CHO DP-12) | Amount of protein produced, 3 (CHO DP-12) [mg/L] | Viability, 3 (CHO DP-12) | cell growth promotion, order of the peptides (CHO-K1) | other results
1 | Asp-Gly-Pro [DGP] | 5.24 | 86.9 | 14.6333 ×10^4 | 5.37 | 86.3 | 4.90 | 87.3 | 5.44 | 87.2 | cell growth was promoted | Absorbance (450 nm) (CHO-K1; 0.138 mM peptide): 0.0957; Absorbance (450 nm) (CHO-K1; 0.278 mM peptide): 0.2464; Absorbance (450 nm) (CHO-K1; 0.555 mM peptide): 0.4127; Absorbance (450 nm) (CHO-K1; 1.11 mM peptide): 0.5617; Absorbance (450 nm) (CHO-K1; 2.22 mM peptide): 0.7657; Absorbance (450 nm) (CHO-K1; 4.44 mM peptide): 0.4004
2 | NCCCC[C@H](NC(=O)[C@H](CCC(=O)O)NC(=O)CN)C(=O)O [GEK, Gly-Glu-Lys] (H-Gly-Glu-Lys-OH; N-terminus and C-terminus assumed) | 5.59 | 86.9 | 15.9345 ×10^4 | 6.13 | 86.5 | 4.59 | 87.4 | 6.06 | 86.7 | cell growth was promoted | Absorbance (450 nm) (CHO-K1; 0.128 mM peptide): −0.0903; Absorbance (450 nm) (CHO-K1; 0.257 mM peptide): 0.0657; Absorbance (450 nm) (CHO-K1; 0.512 mM peptide): 0.3020; Absorbance (450 nm) (CHO-K1; 1.02 mM peptide): 0.6377; Absorbance (450 nm) (CHO-K1; 2.05 mM peptide): 1.0050; Absorbance (450 nm) (CHO-K1; 4.10 mM peptide): 0.5757
3 | C[C@H](N)C(=O)NCC(=O)N[C@@H](CCCCN)C(=O)O [AGK, Ala-Gly-Lys] (H-Ala-Gly-Lys-OH; N-terminus and C-terminus assumed) | 6.92 | 88.5 | 19.0887 ×10^4 | 7.36 | 89.0 | 6.61 | 88.5 | 6.78 | 88.1 | cell growth was promoted | Absorbance (450 nm) (CHO-K1; 0.123 mM peptide): 0.0180; Absorbance (450 nm) (CHO-K1; 0.247 mM peptide): 0.1440; Absorbance (450 nm) (CHO-K1; 0.494 mM peptide): 0.3360; Absorbance (450 nm) (CHO-K1; 0.99 mM peptide): 0.5380; Absorbance (450 nm) (CHO-K1; 1.97 mM peptide): 0.6613; Absorbance (450 nm) (CHO-K1; 3.95 mM peptide): 0.4693
4 | Gly-Pro-Pro [GPP] | 5.86 | 88.2 | 15.5502 ×10^4 | 5.78 | 88.9 | 5.31 | 87.9 | 6.50 | 87.9 | cell growth was promoted | Absorbance (450 nm) (CHO-K1; 0.137 mM peptide): 0.1163; Absorbance (450 nm) (CHO-K1; 0.276 mM peptide): 0.2303; Absorbance (450 nm) (CHO-K1; 0.550 mM peptide): 0.4117; Absorbance (450 nm) (CHO-K1; 1.10 mM peptide): 0.6443; Absorbance (450 nm) (CHO-K1; 2.20 mM peptide): 0.5700; Absorbance (450 nm) (CHO-K1; 4.40 mM peptide): 0.3620
